Consider 19 compounds from patent US20140315889A1, “HYDROXAMATE DERIVATIVES FOR HDAC INHIBITOR, AND THE PHARMACEUTICAL COMPOSITION COMPRISING THEREOF” (CHONG KUN DANG PHARMACEUTICAL CORP., priority 2011, published 2014).

The target in one experiment is T1, human recombinant HDAC6 (Homo sapiens, UniProt Q9UBN7).
T1 construct: purchased Calibiochem Co. (so in the source) 382180
T1 sequence (Q9UBN7 1-1215): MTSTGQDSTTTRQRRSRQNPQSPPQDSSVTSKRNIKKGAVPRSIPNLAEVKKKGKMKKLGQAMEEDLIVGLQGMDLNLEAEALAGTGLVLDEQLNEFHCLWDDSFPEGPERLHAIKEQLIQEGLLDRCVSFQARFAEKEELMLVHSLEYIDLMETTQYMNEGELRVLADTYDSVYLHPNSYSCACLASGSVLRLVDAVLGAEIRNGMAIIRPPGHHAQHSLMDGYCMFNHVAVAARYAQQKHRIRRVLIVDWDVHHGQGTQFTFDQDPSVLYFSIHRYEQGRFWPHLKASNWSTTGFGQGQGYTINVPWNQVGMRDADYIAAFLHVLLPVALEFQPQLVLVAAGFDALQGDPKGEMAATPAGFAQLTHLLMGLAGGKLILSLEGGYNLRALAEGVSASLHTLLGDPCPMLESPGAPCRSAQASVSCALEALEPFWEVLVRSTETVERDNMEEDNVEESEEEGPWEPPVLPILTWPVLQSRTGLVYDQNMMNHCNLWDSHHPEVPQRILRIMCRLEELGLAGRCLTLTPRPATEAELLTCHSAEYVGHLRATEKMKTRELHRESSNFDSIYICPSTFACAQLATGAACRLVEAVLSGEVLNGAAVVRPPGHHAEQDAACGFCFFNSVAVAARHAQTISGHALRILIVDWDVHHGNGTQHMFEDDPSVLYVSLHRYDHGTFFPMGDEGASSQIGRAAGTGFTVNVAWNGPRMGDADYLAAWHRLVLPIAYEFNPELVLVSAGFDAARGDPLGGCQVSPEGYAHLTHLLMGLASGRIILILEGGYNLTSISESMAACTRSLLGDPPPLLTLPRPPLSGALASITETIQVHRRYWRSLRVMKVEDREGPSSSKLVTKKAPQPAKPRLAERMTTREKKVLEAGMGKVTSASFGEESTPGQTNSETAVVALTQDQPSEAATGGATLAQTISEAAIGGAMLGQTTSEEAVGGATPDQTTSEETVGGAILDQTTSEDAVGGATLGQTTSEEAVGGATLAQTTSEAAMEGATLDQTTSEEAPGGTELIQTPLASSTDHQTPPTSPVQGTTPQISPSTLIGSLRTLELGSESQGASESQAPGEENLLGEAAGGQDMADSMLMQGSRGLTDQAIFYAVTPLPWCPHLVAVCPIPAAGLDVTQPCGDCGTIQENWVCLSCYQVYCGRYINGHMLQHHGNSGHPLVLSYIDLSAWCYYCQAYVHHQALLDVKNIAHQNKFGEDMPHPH
As to the kind of experiment: HDAC enzyme activity test, HDAC6. The format is biochemical. Particulars: for Selectivity for HDAC6, HD1/HD6 / IC50: Table 12; for Selectivity for HDAC6, HD1/HD6: ratio HDAC1 IC50 / HDAC6 IC50; for IC50: read-out: Inhibition ability (IC50) HDAC6. On the procedure: (§1) Then, 0.3 μg of enzyme and 10 μM of substrate per well were added, reacted at 30° C. for 60 minutes. Thereto, Fluor de Lys® Developer II (BML-KI176) was added and reacted for 30 minutes. […] From the data, the respective IC50 were calculated by GraphPad Prism 4.0 program.

Another experiment has as its target T2, Human recombinant HDAC1 (Homo sapiens, UniProt Q13547).
T2 construct: purchased Enzo Life Science Co. (named for the kit; assigned to the enzyme from the BML- catalogue prefix) BML-SE456
Kind of experiment: HDAC enzyme activity test, HDAC1. Format: biochemical. Particulars: Table 12; read-out: Inhibition ability (IC50) HDAC1. On the procedure: as §1

T2 sequence (Q13547 whole entry): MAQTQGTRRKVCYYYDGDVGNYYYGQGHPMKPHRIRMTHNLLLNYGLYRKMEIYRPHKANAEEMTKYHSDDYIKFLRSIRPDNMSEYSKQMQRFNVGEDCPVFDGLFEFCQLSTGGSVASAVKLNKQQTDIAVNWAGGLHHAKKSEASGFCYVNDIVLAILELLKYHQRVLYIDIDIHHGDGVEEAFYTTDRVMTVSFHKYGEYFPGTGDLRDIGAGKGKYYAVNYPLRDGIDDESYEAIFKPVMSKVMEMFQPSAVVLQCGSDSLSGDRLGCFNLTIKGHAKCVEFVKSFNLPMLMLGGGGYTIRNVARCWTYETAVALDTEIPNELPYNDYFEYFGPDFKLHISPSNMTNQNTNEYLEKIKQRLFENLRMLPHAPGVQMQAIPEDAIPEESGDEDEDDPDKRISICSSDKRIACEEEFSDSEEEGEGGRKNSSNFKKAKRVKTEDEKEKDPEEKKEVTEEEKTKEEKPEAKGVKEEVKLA

For the compound `Cc1c2c(n(Cc3ccc(C(=O)NO)cc3)c1C)CCC(CN1CCOCC1)C2=O` (stereo not shown) [Compound 268, 4-((2,3-dimethyl-5-(morpholinomethyl)-4-oxo-4,5,6,7-tetrahydroindol-1-yl)methyl)-N-hydroxybenzamide], on human recombinant HDAC6, the “Selectivity for HDAC6, HD1/HD6” value is reported as 448.4 and the IC50 (as a rule, the midpoint of a concentration-inhibition curve) came to 13.5 nM. In addition, at Human recombinant HDAC1, the IC50 turned out to be 6050 nM.

Consider `O=C(NO)c1ccc(Cn2c3c(c4cc(F)ccc42)C(=O)C(CN2CC[C@@H](F)C2)CC3)cc1` (stereo partly drawn) [Compound 283, 4-((6-fluoro-3-(((R)-3-fluoropyrrolidin-1-yl)methyl)-4-oxo-1,2,3,4-tetrahydrocarbazol-9-yl)methyl)-N-hydroxybenzamide], for which, at human recombinant HDAC6, the “Selectivity for HDAC6, HD1/HD6” value turned out to be 1420.6 and the IC50 came out at 8.29 nM. Besides, at Human recombinant HDAC1, the IC50 worked out at 11800 nM.

For `COCCN1CCN(CC2CCc3c(c4cc(F)ccc4n3Cc3ccc(C(=O)NO)cc3)C2=O)CC1` (stereo not shown) [Compound 284, 4-((6-fluoro-3-((4-(2-methoxyethyl)piperazin-1-yl)methyl)-4-oxo-1,2,3,4-tetrahydrocarbazol-9-yl)methyl)-N-hydroxybenzamide], on human recombinant HDAC6, the “Selectivity for HDAC6, HD1/HD6” value came out at 1435.7 and the IC50 stood at 7.47 nM. For the same compound, at Human recombinant HDAC1, the IC50 was 10700 nM.

With `COC[C@@H]1CCCN1CCN1CCc2c(c3cc(F)ccc3n2Cc2ccc(C(=O)NO)cc2)C1=O` [Compound 285, (S)-4-((8-fluoro-2-(2-(2-(methoxymethyl)pyrrolidin-1-yl)ethyl)-1-oxo-1,2,3,4-tetrahydropyrido[4,3-b]indol-5-yl)methyl)-N-hydroxybenzamide], on human recombinant HDAC6, the “Selectivity for HDAC6, HD1/HD6” value is listed as 588.2 and the IC50 came out at 22.5 nM. In addition, on Human recombinant HDAC1, the IC50 came to 13200 nM.

On to `O=C(NO)c1ccc(Cn2c3c(c4cc(F)ccc42)C(=O)N(CCN2CCC(CO)CC2)CC3)cc1` [Compound 286, 4-((8-fluoro-2-(2-(4-(hydroxymethyl)piperidin-1-yl)ethyl)-1-oxo-1,2,3,4-tetrahydropyrido[4,3-b]indol-5-yl)methyl)-N-hydroxybenzamide], for which, on human recombinant HDAC6, the “Selectivity for HDAC6, HD1/HD6” value was 607 and the IC50 is 17.4 nM. For the same compound, the IC50 at Human recombinant HDAC1 came to 10600 nM.

Consider `CN1CCN(CCN2CCc3c(c4cc(F)ccc4n3Cc3ccc(C(=O)NO)cc3)C2=O)CC1` [Compound 287, 4-((8-fluoro-2-(2-(4-methylpiperazin-1-yl)ethyl)-1-oxo-1,2,3,4-tetrahydropyrido[4,3-b]indol-5-yl)methyl)-N-hydroxybenzamide], for which, on human recombinant HDAC6, the “Selectivity for HDAC6, HD1/HD6” value was 715.1 and the IC50 is 11.5 nM. Besides, the IC50 on Human recombinant HDAC1 came to 8200 nM.

As to `O=C(NO)c1ccc(Cn2c3c(c4cc(F)ccc42)C(=O)N(CCN2CCN(CCO)CC2)CC3)cc1` [Compound 288, 4-((8-fluoro-2-(2-(4-(2-hydroxyethyl)piperazin-1-yl)ethyl)-1-oxo-1,2,3,4-tetrahydropyrido[4,3-b]indol-5-yl)methyl)-N-hydroxybenzamide], at human recombinant HDAC6, the “Selectivity for HDAC6, HD1/HD6” value turned out to be 708.9 and the half-maximal inhibitory concentration (IC50) was 10.6 nM. Moreover, on Human recombinant HDAC1, the IC50 was found to be 7510 nM.

As for `O=C(NO)c1ccc(Cn2c3c(c4cc(F)ccc42)C(=O)N(CCN2CCC[C@@H]2CO)CC3)cc1` [Compound 289, (R)-4-((8-fluoro-2-(2-(2-(hydroxymethyl)pyrrolidin-1-yl)ethyl)-1-oxo-1,2,3,4-tetrahydropyrido[4,3-b]indol-5-yl)methyl)-N-hydroxybenzamide], on human recombinant HDAC6, the “Selectivity for HDAC6, HD1/HD6” value came out at 691.2 and the IC50 came out at 11.5 nM. The IC50 on Human recombinant HDAC1 was determined as 7980 nM.

As for `O=C(NO)c1ccc(Cn2c3c(c4cc(F)ccc42)C(=O)N(CCN2CCC[C@H]2CO)CC3)cc1` [Compound 290, (S)-4-((8-fluoro-2-(2-(2-(hydroxymethyl)pyrrolidin-1-yl)ethyl)-1-oxo-1,2,3,4-tetrahydropyrido[4,3-b]indol-5-yl)methyl)-N-hydroxybenzamide], at human recombinant HDAC6, the “Selectivity for HDAC6, HD1/HD6” value is 2925.1 and the IC50 is 2.19 nM. For the same compound, the “selectivity for HDAC6 over HDAC1” value at human recombinant HDAC6 (from the data of Table 12) was “more than 2,900 times”. Besides, the half-inhibitory concentration (IC50) on Human recombinant HDAC1 was found to be 6410 nM.

`CN1CCCN(CCN2CCc3c(c4cc(F)ccc4n3Cc3ccc(C(=O)NO)cc3)C2=O)CC1` [Compound 291, 4-((8-fluoro-2-(2-(4-methyl-1,4-diazepan-1-yl)ethyl)-1-oxo-1,2,3,4-tetrahydropyrido[4,3-b]indol-5-yl)methyl)-N-hydroxybenzamide]: at human recombinant HDAC6, the “Selectivity for HDAC6, HD1/HD6” value is recorded as 426.3 and the IC50 is 18.6 nM. Further, the IC50 on Human recombinant HDAC1 worked out at 7920 nM.

Regarding `CN(CCO)CCN1CCc2c(c3cc(F)ccc3n2Cc2ccc(C(=O)NO)cc2)C1=O` [Compound 292, 4-((8-fluoro-2-(2-((2-hydroxyethyl)(methyl)amino)ethyl)-1-oxo-1,2,3,4-tetrahydropyrido[4,3-b]indol-5-yl)methyl)-N-hydroxybenzamide], at human recombinant HDAC6, the “Selectivity for HDAC6, HD1/HD6” value is 781.3 and the IC50 stood at 12.8 nM. Also, on Human recombinant HDAC1, the IC50 turned out to be 10000 nM.

Regarding `O=C(NO)c1ccc(Cn2c3ccc(F)cc3c3c(=O)[nH]ccc32)cc1` [Compound 305, 4-((8-fluoro-1-oxo-1,2-dihydropyrido[4,3-b]indol-5-yl)methyl)-N-hydroxybenzamide], on human recombinant HDAC6, the “Selectivity for HDAC6, HD1/HD6” value amounted to 980.4 and the IC50 is 2.5 nM. Also, the IC50 at Human recombinant HDAC1 came out at 2450 nM.

`O=C(NO)c1ccc(Cn2c3c(c4cc(F)ccc42)C(=O)NCC3)cc1` [Compound 306, 4-((8-fluoro-1-oxo-1,2,3,4-tetrahydropyrido[4,3-b]indol-5-yl)methyl)-N-hydroxybenzamide]: on human recombinant HDAC6, the “Selectivity for HDAC6, HD1/HD6” value stood at 1041.9 and the half-maximal inhibitory concentration (IC50) is 3.1 nM. Further, the IC50 on Human recombinant HDAC1 was 3230 nM.

For `O=C(CCCCCn1c2c(c3cc(F)ccc31)C(=O)C(CN1CCOCC1)CC2)NO` (stereo not shown) [Compound 321, 6-(6-fluoro-3-(morpholinomethyl)-4-oxo-1,2,3,4-tetrahydrocarbazol-9-yl)-N-hydroxyhexanamide], on human recombinant HDAC6, the “Selectivity for HDAC6, HD1/HD6” value came to 121.8. Moreover, the IC50 on human recombinant HDAC6 was 110 nM; on Human recombinant HDAC1 it was 13300 nM.

In the case of `O=C(CCCCCn1c2c(c3cc(F)ccc31)C(=O)C(CN1CCN(c3ccc(F)cc3)CC1)CC2)NO` (stereo not shown) [Compound 322, 6-(6-fluoro-3-((4-(4-fluorophenyl)piperazin-1-yl)methyl)-4-oxo-1,2,3,4-tetrahydrocarbazol-9-yl)-N-hydroxyhexanamide], at human recombinant HDAC6, the “Selectivity for HDAC6, HD1/HD6” value is given as 40.8. The IC50 at human recombinant HDAC6 was found to be 182 nM; on Human recombinant HDAC1, 7440 nM.

As for `CC1CN(CC2CCc3c(c4cc(F)ccc4n3CCCCCC(=O)NO)C2=O)CC(C)O1` (stereo not shown) [Compound 323, 6-(3-((2,6-dimethylmorpholino)methyl)-6-fluoro-4-oxo-1,2,3,4-tetrahydrocarbazol-9-yl)-N-hydroxyhexanamide], on human recombinant HDAC6, the “Selectivity for HDAC6, HD1/HD6” value is listed as 102.2 and the IC50 stood at 87.8 nM. The IC50 at Human recombinant HDAC1 worked out at 8970 nM.

For the compound `CC(C)(C)OC(=O)N1CCN(CC2CCc3c(c4cc(F)ccc4n3CCCCCC(=O)NO)C2=O)CC1` (stereo not shown) [Compound 324, tert-butyl 4-((6-fluoro-9-(6-(hydroxyamino)-6-oxohexyl)-4-oxo-2,3,4,9-tetrahydro-1H-carbazol-3-yl)methyl)piperazine-1-carboxylate], at human recombinant HDAC6, the “Selectivity for HDAC6, HD1/HD6” value is reported as 113.2 and the IC50 is 103 nM. Moreover, the IC50 on Human recombinant HDAC1 was 11600 nM.

Take `O=C(CCCCCCn1c2c(c3cc(F)ccc31)C(=O)CCC2)NO` [Compound 325, 7-(3-fluoro-5-oxo-5,6,7,8-tetrahydrocarbazol-9-yl)-N-hydroxyheptanamide]: the “Selectivity for HDAC6, HD1/HD6” value on human recombinant HDAC6 was determined as 31.3. Also, the figures for the IC50 on human recombinant HDAC6 and on Human recombinant HDAC1 were 3 nM and 93.8 nM, respectively.

As for `CCCCN1CCN(CC2CCc3c(c4cc(F)ccc4n3CCCCCC(=O)NO)C2=O)CC1` (stereo not shown) [Compound 326, 6-(3-((4-butylpiperazin-1-yl)methyl)-6-fluoro-4-oxo-1,2,3,4-tetrahydrocarbazol-9-yl)-N-hydroxyhexanamide], at human recombinant HDAC6, the “Selectivity for HDAC6, HD1/HD6” value amounted to 103.3 and the concentration for half-maximal inhibition (IC50) stood at 97.6 nM. For the same compound, the IC50 at Human recombinant HDAC1 stood at 10100 nM.
